Results from US11767341B2, “Lincosamide antibiotics and uses thereof” (President and Fellows of Harvard College, priority 2017, dated 2023).
Values after ≈ are worked out from the molar mass of the structure shown.

Experiments:
Assay in all cases: MIC determination
Type in all cases: cell-based
[1] = test system: S. pneumoniae UNT-038, MP-626, TP 160 (mefA); conditions: Streptococcus pneumoniae
[2] = test system: K. pneumoniae ATCC 10031; conditions: Klebsiella pneumoniae, ATCC10031; K. pneumoniae ATCC 10031; read-out: MIC
[3] = test system: E. faecalis ATCC 29212; conditions: Enterococcus faecalis, ATCC29212, read-out: MIC
[4] = test system: S. pneumoniae UNT-039, MP-627, TP1517 (mefA); conditions: Streptococcus pneumoniae
[5] = test system: S. pneumoniae TP 1537 (ermB + mefA); conditions: Streptococcus pneumoniae; S. pneumoniae TP 1537 (ermB + mefA); read-out: MIC
[6] = test system: S. aureus ATCC 29213; conditions: Staphylococcus aureus, ATCC29213, S. aureus ATCC 29213; read-out: MIC
[7] = test system: K. pneumoniae IHMA 658692; KPC-2; conditions: Klebsiella pneumoniae; K. pneumoniae IHMA 658692; KPC-2; read-out: MIC
[8] = test system: S. aureus UNT-120, MP-619, NRS22 (USA 600, GISA); conditions: Staphylococcus aureus; S. aureus UNT-120, MP-619, NRS22 (USA 600, GISA); read-out: MIC
[9] = test system: S. pneumoniae ATCC 49619; conditions: Streptococcus pneumoniae, ATCC49619; S. pneumoniae ATCC 49619; read-out: MIC
[10] = test system: S. aureus UNT96, NRS710, MP-618 (USA 100, Erythro >8); conditions: Staphylococcus aureus; S. aureus UNT96, NRS710, MP-618 (USA 100, Erythro >8); read-out: MIC
[11] = test system: S. aureus BAA-1556 (USA 300); conditions: Staphylococcus aureus; S. aureus BAA-1556 (USA 300); read-out: MIC
[12] = test system: E. coli GUEST131 (NDM-1); conditions: Escherichia coli
[13] = test system: H. influenzae ATCC 49247; conditions: Haemophilus influenzae, ATCC49247; H. influenzae ATCC 49247; read-out: MIC
[14] = test system: S. aureus UNT-146, MP-620, TP 506 (ermA); conditions: Staphylococcus aureus; S. aureus UNT-146, MP-620, TP 506 (ermA); read-out: MIC
[15] = test system: E. coli ATCC 25922; conditions: Escherichia coli, ATCC25922, E. coli ATCC 25922; read-out: MIC
[16] = test system: S. pyogenes UNT-014, MP-625 MacRes; conditions: Streptococcus pyogenes; S. pyogenes UNT-014, MP-625 MacRes; read-out: MIC
[17] = test system: P. aeruginosa ATCC 27853; conditions: Pseudomonas aeruginosa, ATCC27853; P. aeruginosa ATCC 27853; read-out: MIC
[18] = test system: E. faecalis UNT-047 VRE; conditions: Enterococcus faecalis; E. faecalis UNT-047 VRE; read-out: MIC
[19] = test system: S. pneumoniae TP 1579 (ermB + tet(M, O)); conditions: Streptococcus pneumoniae
[20] = test system: S. pyogenes ATCC 19615; conditions: Streptococcus pyogenes, ATCC19615; S. pyogenes ATCC 19615; read-out: MIC

| Structure (SMILES) | MIC [1] [µg/mL] | MIC [2] [µg/mL] | MIC [3] [µg/mL] | MIC [4] [µg/mL] | MIC [5] [µg/mL] | MIC [6] [µg/mL] | MIC [7] [µg/mL] | MIC [8] [µg/mL] | MIC [9] [µg/mL] | MIC [10] [µg/mL] | MIC [11] [µg/mL] | MIC [12] [µg/mL] | MIC [13] [µg/mL] | MIC [14] [µg/mL] | MIC [15] [µg/mL] | MIC [16] [µg/mL] | MIC [17] [µg/mL] | MIC [18] [µg/mL] | MIC [19] [µg/mL] | MIC [20] [µg/mL] |
| --- | --- | --- | --- | --- | --- | --- | --- | --- | --- | --- | --- | --- | --- | --- | --- | --- | --- | --- | --- | --- |
| CSC1O[C@H]([C@H](NC(=O)[C@H]2NC[C@@H]3C=CCO[C@@H]23)[C@H](C)Cl)C(O)[C@@H](O)[C@H]1O (stereo partly drawn) [FSA-24039] | 0.125 (≈ 0.296 µM) | > 32 | 32 (≈ 75.7 µM) | ≤ 0.0313 | > 32 | 1 (≈ 2.36 µM) | > 32 | > 32 | 0.0625 (≈ 0.148 µM) | > 32 | > 32 | > 32 | 32 (≈ 75.7 µM) | > 32 | > 32 | 0.125 (≈ 0.296 µM) | > 32 | > 32 | 0.0625 (≈ 0.148 µM) | 0.125 (≈ 0.296 µM) |
| CSC1O[C@H]([C@H](NC(=O)[C@@H]2[C@@H]3OCCCC[C@H]3CN2C)[C@H](C)Cl)C(O)C(O)[C@H]1O (stereo partly drawn) [FSA-24040] | ≤ 0.0313 | 8 (≈ 17.7 µM) | 32 (≈ 70.6 µM) | ≤ 0.0313 | > 32 | ≤ 0.0313 | > 32 | > 32 | ≤ 0.0313 | > 32 | > 32 | > 32 | 8 (≈ 17.7 µM) | > 32 | > 32 | ≤ 0.0313 | > 32 | > 32 | ≤ 0.0313 | ≤ 0.0313 |
| CSC1O[C@H]([C@H](NC(=O)[C@H]2NC[C@@H]3CCCO[C@H]32)[C@H](C)Cl)C(O)[C@@H](O)[C@H]1O (stereo partly drawn) [FSA-24041] | 0.0625 (≈ 0.147 µM) | > 32 | 32 (≈ 75.3 µM) | ≤ 0.0313 | > 32 | 0.5 (≈ 1.18 µM) | > 32 | > 32 | 0.0625 (≈ 0.147 µM) | > 32 | > 32 | > 32 | 32 (≈ 75.3 µM) | > 32 | > 32 | 0.0625 (≈ 0.147 µM) | > 32 | > 32 | ≤ 0.0313 | ≤ 0.0313 |
